Reference: ChEMBL document CHEMBL5674860, “Optimized Dual-Glo Assay to identify co-culture-induced drug vulnerabilities in 3D CRC models” (2024)

What was measured:
Assay type in all cases: functional, Homo sapiens
Set-up in all cases: dose or concentration left out as unconfirmed
Colon cancer organoid [1] = experiment: Optimized Dual-Glo assay to identify co-culture induced drug vulnerabilities using donated chemical probes and chemogenomics kinase set in O20 CRC organoid and F20 CAF mono and co-culture. […] Cell viability is reported both mono and co-culture models.
Colon cancer organoid [2] = experiment: Optimized Dual-Glo assay to identify co-culture induced drug vulnerabilities using donated chemical probes and chemogenomics kinase set in O14 CRC organoid and F14 CAF mono and co-culture. […] Cell viability is reported both mono and co-culture models.
Colon cancer organoid [3] = experiment: Optimized Dual-Glo assay to identify co-culture induced drug vulnerabilities using donated chemical probes and chemogenomics kinase set in O06 CRC organoid and F06 CAF mono and co-culture. […] Cell viability is reported both mono and co-culture models.
[4] = Culture type Co-Culture, Transduced with Lucferase2-P2A-EGFP lentivirus
[5] = Culture type Co-Culture, Transduced with Renilla-dsRed lentivirus
[6] = Culture type Mono-Culture, Transduced with Lucferase2-P2A-EGFP lentivirus
[7] = Culture type Mono-Culture, Transduced with Renilla-dsRed lentivirus

SMILES | Cell Viability (Colon cancer organoid [1]; [4]) [%] | Cell Viability (Colon cancer organoid [1]; [5]) [%] | Cell Viability (Colon cancer organoid [1]; [6]) [%] | Cell Viability (Colon cancer organoid [1]; [7]) [%] | Cell Viability (Colon cancer organoid [2]; [4]) [%] | Cell Viability (Colon cancer organoid [2]; [5]) [%] | Cell Viability (Colon cancer organoid [2]; [6]) [%] | Cell Viability (Colon cancer organoid [2]; [7]) [%] | Cell Viability (Colon cancer organoid [3]; [4]) [%] | Cell Viability (Colon cancer organoid [3]; [5]) [%] | Cell Viability (Colon cancer organoid [3]; [6]) [%] | Cell Viability (Colon cancer organoid [3]; [7]) [%]
Cc1sc2c(c1C)C(c1ccc(Cl)cc1)=N[C@@H](CC(=O)OC(C)(C)C)c1nnc(C)n1-2 | 11.0659 | 145.881 | 17.1066 | 37.2064 | 21.0352 | 390.207 | 21.1376 | 218.603 | 24.0633 | 301.325 | 25.9077 | 273.458
COc1cc2c(cc1-c1c(C)noc1C)ncc1[nH]c(=O)n([C@H](C)c3ccccn3)c12 | 26.0295 | 172.215 | 25.6738 | 101.868 | 36.9013 | 317.138 | 43.8564 | 208.742 | 43.5488 | 325.273 | 54.5625 | 294.029
CCCc1cc(C)[nH]c(=O)c1CNC(=O)c1cc(-c2ccnc(N3CCN(C)CC3)c2)cc2c1cnn2C(C)C | 55.9892 | 146.305 | 86.0915 | 120.133 | 90.4891 | 115.464 | 111.507 | 115.721 | 75.6598 | 125.188 | 109.33 | 104.205
CN1CCN(c2ccc(-c3cccc(CN4CCOCC4)c3)cc2NC(=O)c2c[nH]c(=O)cc2C(F)(F)F)CC1 | 82.2903 | 116.555 | 112.073 | 84.4992 | 81.9859 | 136.534 | 110.455 | 90.7791 | 91.1397 | 122.014 | 99.8143 | 114.421
CC(C)Oc1ccc(-c2c[nH]cc2CN(C)CCN)cc1 | 47.7555 | 252.195 | 49.3092 | 91.7276 | 38.1359 | 167.261 | 29.2667 | 88.3814 | 47.5822 | 178.793 | 30.9197 | 89.9891
CNCCN1CCC(OCc2ccccc2)CC1 | 15.2188 | 211.667 | 16.3767 | 101.684 | 36.6993 | 161.59 | 58.8026 | 109.763 | 118.085 | 144.179 | 105.555 | 98.6528
CN(C)[C@H]1CN(C2CCc3cccc(F)c32)C[C@@H]1c1ccc(N2CCN(S(C)(=O)=O)CC2)cc1 (stereo partly drawn) | 31.8041 | 145.189 | 62.1102 | 96.7919 | 85.2853 | 124.227 | 108.249 | 110.303 | 82.1891 | 127.07 | 99.7479 | 137.803
CC1(C)C(N)=Nc2cc(OCCCN3Cc4ccc(OCCc5cn(CC(=O)N6CCC(CCN7CCCC7)CC6)nn5)cc4C3)c(OCC3CC3)cc21 | 94.7334 | 161.052 | 109.897 | 111.947 | 83.4014 | 129.005 | 107.567 | 119.85 | 85.8179 | 109.54 | 61.6099 | 146.021
CC1(C)C(N)=Nc2cc(OCCCCN3Cc4ccc(OCc5cn(CC(=O)N6CCC(CCN7CCCC7)CC6)nn5)cc4C3)c(OCC3CC3)cc21 | 70.4635 | 125.652 | 114.565 | 111.957 | 75.997 | 107.884 | 116.341 | 106.753 | 65.2251 | 114.368 | 80.2418 | 105.711
CN(C)C(=O)Cn1cc(-c2ccc(-c3cncc4ccccc34)cc2)cn1 | 97.1634 | 25.8647 | 131.343 | 32.5119 | 86.7541 | 14.5396 | 75.1396 | 23.2323 | 83.3121 | 47.4852 | 74.4895 | 24.5354
COc1ccccc1-c1cc(N2CCN(C(=O)OC(C)(C)C)CC2)c(N)nn1 | 122.85 | 160.936 | 122.916 | 117.085 | 99.785 | 110.211 | 110.079 | 98.4172 | 99.4085 | 102.712 | 83.0998 | 116.6
CCn1c(-c2nc3cc(C(=O)N4CCCC(N)C4)ccc3n2C)cc2ccccc21.Cl (stereo not drawn) | 132.709 | 136.72 | 106.473 | 96.2054 | 85.5466 | 126.887 | 120.87 | 100.943 | 115.054 | 117.733 | 118.281 | 112.415
Cc1cc(CN)cc(C)c1-c1ncn(C)c1-c1ccnc2cc(F)ccc12.Cl | 143.957 | 87.6481 | 139.188 | 92.4746 | 87.6168 | 103.014 | 105.617 | 97.8671 | 105.057 | 123.721 | 137.219 | 129.63
COc1cc(OC)cc(-c2noc(N3CCN(C)C4(CCN(c5ccccc5)CC4)C3)n2)c1 | 90.0996 | 110.491 | 105.262 | 93.4153 | 94.7889 | 110.973 | 95.4006 | 91.5093 | 67.7845 | 115.277 | 89.2845 | 104.733
